Data taken from patent US9265253B2, “Use of macrocyclic picolinamides as fungicides” (DOW AGROSCIENCES LLC, priority 2013, dated 2016).
Where two headings read alike, the source gives them in different places.

Tests used:
Assay type in all cases: in vivo
Alternaria solani = assay: Tomato Early Blight (ALTESO) disease control; conditions: Alternaria solani, topical, 24 h, 1 Day Protectant, read-out: Disease Control ALTESO 1 DP
Experimental: Technical grades of materials were dissolved in acetone, which were then mixed with nine volumes of water containing 110 ppm Triton X-100. The fungicide solutions were applied onto wheat seedlings using an automated booth sprayer to run-off. All sprayed plants were allowed to air dry prior to further handling. All fungicides were evaluated using the aforementioned method for their activity vs. all target diseases. Wheat leaf blotch and brown rust activity were also evaluated using track spray applications, in which case the fungicides were formulated as EC formulations, containing 0.1% Trycol 5941 in the spray solutions. Wheat plants (variety Yuma) were grown from seed in a greenhouse in 50% mineral soil/50% soil-less Metro mix until the first leaf was fully emerged, with 7-10 seedlings per pot. These plants were inoculated with an aqueous spore suspension of Septoria tritici either prior to or after fungicide treatments. After inoculation the plants were kept in 100% relative humidity (one day in a dark dew chamber followed by two to three days in a lighted dew chamber at 20° C.) to permit spores to germinate and infect the leaf. The plants were then transferred to a greenhouse set at 20° C. for disease to develop. When disease symptoms were fully expressed on the 1st leaves of untreated plants, infection levels were assessed on a scale of 0 to 100 percent disease severity. Percent disease control was calculated using the ratio of disease severity on treated plants relative to untreated plants. Tomato plants (variety Outdoor girl) were propagated in soil-less Metro mix, with each pot having one plant, and used when 12 to 14 days old. Test plants were inoculated with an aqueous spore suspension of Alternaria solani 24 hr after fungicide treatments. After inoculation the plants were kept in 100% relative humidity (one day in a dark dew chamber followed by two to three days in a lighted dew chamber at 20° C.) to permit spores to germinate and infect the leaf. The plants were then transferred to a growth room at 22° C. for disease to develop. Fungicide formulation, application and disease assessment on the sprayed leaves followed the procedures as described in the Example A.

Venturia inaequalis = assay: Apple Scab (VENTIN) disease control; conditions: Venturia inaequalis, topical, 24 h, 1 Day Protectant, read-out: Disease Control VENTIN 1 DP
Experimental: Technical grades of materials were dissolved in acetone, which were then mixed with nine volumes of water containing 110 ppm Triton X-100. The fungicide solutions were applied onto wheat seedlings using an automated booth sprayer to run-off. All sprayed plants were allowed to air dry prior to further handling. All fungicides were evaluated using the aforementioned method for their activity vs. all target diseases. Wheat leaf blotch and brown rust activity were also evaluated using track spray applications, in which case the fungicides were formulated as EC formulations, containing 0.1% Trycol 5941 in the spray solutions. Wheat plants (variety Yuma) were grown from seed in a greenhouse in 50% mineral soil/50% soil-less Metro mix until the first leaf was fully emerged, with 7-10 seedlings per pot. These plants were inoculated with an aqueous spore suspension of Septoria tritici either prior to or after fungicide treatments. After inoculation the plants were kept in 100% relative humidity (one day in a dark dew chamber followed by two to three days in a lighted dew chamber at 20° C.) to permit spores to germinate and infect the leaf. The plants were then transferred to a greenhouse set at 20° C. for disease to develop. When disease symptoms were fully expressed on the 1st leaves of untreated plants, infection levels were assessed on a scale of 0 to 100 percent disease severity. Percent disease control was calculated using the ratio of disease severity on treated plants relative to untreated plants. Apple seedlings (variety McIntosh) were grown in soil-less Metro mix, with one plant per pot. Seedlings with two expanding young leaves at the top (older leaves at bottom of the plants were trimmed) were used in the test. Plants were inoculated with a spore suspension of Venturia inaequalis 24 hr after fungicide treatment and kept in a 22° C. dew chamber with 100% RH for 48 hr, and then moved to a greenhouse set at 20° C. for disease to develop. Fungicide formulation, application and disease assessment on the sprayed leaves followed the procedures as described in the Example A.

[1] = system: Puccinia triticina; Synonym: Puccinia recondite f. Sp. Tritici; assay: Wheat Brown Rust (PUCCRT) disease control; conditions: Puccinia triticina, topical; for pest or weed control at 100 ppm: rate 100 ppm
How it was run: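 Brown rust on first-leaf Yuma wheat: spore inoculation before or after spray application (acetone/Triton X-100 solution, or EC with Trycol in track spray), overnight 100% RH at 22 °C, disease developed at 24 °C. Severity scored 0–100% and converted to percent control against untreated.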

[2] = system: Mycosphaerella graminicola; Anamorph: Septoria tritici; assay: Leaf Blotch of Wheat (SEPTTR) disease control; conditions: Zymoseptoria tritici; for pest or weed control at 100 ppm: rate 100 ppm
How it was run: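 Preventive or curative tests: first-leaf Yuma wheat, sprayed to run-off, inoculated with S. tritici, dew chamber at 100% humidity, then greenhouse at 20° C. Severity on the first leaf is scored on a 0–100% scale and expressed as % control against untreated plants.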

[3] = 24 h, 1 Day Protectant, read-out: PUCCRT 1 DP disease control
[4] = 24 h, 1 Day Protectant, rate 121.5 g/H, read-out: PUCCRT 1 DP disease control
[5] = 72 h, 3 Day Curative, read-out: PUCCRT 3 DC disease control
[6] = 72 h, 3 Day Curative, rate 121.5 g/H, read-out: PUCCRT 3 DC disease control
[7] = 24 h, 1 Day Protectant, read-out: SEPTTR 1 DP disease control
[8] = 24 h, 1 Day Protectant, rate 121.5 g/H, read-out: SEPTTR 1 DP disease control
[9] = 72 h, 3 Day Curative, read-out: SEPTTR 3 DC disease control
[10] = 72 h, 3 Day Curative, rate 121.5 g/H, read-out: SEPTTR 3 DC disease control

| Compound | pest or weed control at 100 ppm (Alternaria solani) [%] | pest or weed control at 100 ppm (Venturia inaequalis) [%] | pest or weed control at 100 ppm [1, 3] [%] | pest or weed control at 121.5 g/ha [1, 4] [%] | pest or weed control at 100 ppm [1, 5] [%] | pest or weed control at 121.5 g/ha [1, 6] [%] | pest or weed control at 100 ppm [2, 7] [%] | pest or weed control at 121.5 g/ha [2, 8] [%] | pest or weed control at 100 ppm [2, 9] [%] | pest or weed control at 121.5 g/ha [2, 10] [%] | pest or weed control at 121.5 g/ha ([1]; 24 h, Wheat Brown Rust, 1 Day Protectant, rate 121.5 g/H (low volume application), read-out: Disease control PUCCRT 1 DP) [%] | pest or weed control at 121.5 g/ha ([2]; 24 h, Wheat Leaf Blotch, 1 Day Protectant, rate 121.5 g/H (low volume application), read-out: Disease control SEPTTR 1 DP) [%] | pest or weed control at 121.5 g/ha ([2]; 72 h, Wheat Leaf Blotch, 3 Day Curative, rate 121.5 g/H (low volume application), read-out: Disease control SEPTTR 3 DC) [%] |
| --- | --- | --- | --- | --- | --- | --- | --- | --- | --- | --- | --- | --- | --- |
| CCCO[C@@H]1[C@@H](CCC(C)C)CCC[C@H](NC(=O)c2nccc(OC)c2OCOC(=O)COCC)C(=O)O[C@H]1C [Compound F161] | 80 to 100 | 80 to 100 | 80 to 100 | 80 to 100 | 80 to 100 | 80 to 100 | 80 to 100 | 80 to 100 | 80 to 100 | 80 to 100 |  |  |  |
| C=C[C@H]1CCC[C@H](NC(=O)c2nccc(OC)c2OC(C)=O)C(=O)O[C@@H](C)[C@@H]1Oc1ccccc1 [Compound F86] | 0 to 80 | 0 to 80 |  | 80 to 100 |  | 80 to 100 |  | 80 to 100 |  | 80 to 100 |  |  |  |
| COc1ccnc(C(=O)N[C@H]2CCC[C@H](Cc3ccccc3)[C@@H](OCC(C)C)[C@H](C)OC2=O)c1OCOC(=O)C(C)C [Compound F151] | 80 to 100 | 0 to 80 | 80 to 100 | 80 to 100 | 80 to 100 | 80 to 100 | 80 to 100 | 80 to 100 | 80 to 100 | 80 to 100 |  |  |  |
| CCCO[C@@H]1[C@@H](Cc2ccc(F)cc2)CCC[C@H](NC(=O)c2nccc(OC)c2OCOC(=O)COCC)C(=O)O[C@H]1C [Compound F167] | 80 to 100 | 80 to 100 | 80 to 100 | 80 to 100 | 80 to 100 | 80 to 100 | 80 to 100 | 80 to 100 | 80 to 100 | 80 to 100 |  |  |  |
| COc1ccnc(C(=O)N[C@H]2CCC[C@H](CCBr)[C@@H](Oc3ccccc3)[C@H](C)OC2=O)c1OC(C)=O [Compound F80] | 0 to 80 | 0 to 80 | 80 to 100 | 80 to 100 | 80 to 100 | 80 to 100 | 80 to 100 | 80 to 100 | 80 to 100 | 80 to 100 |  |  |  |
| CC[C@H]1CCC[C@H](NC(=O)c2nccc(OC)c2OC(C)=O)C(=O)O[C@@H](C)[C@@H]1Oc1ccccc1 [Compound F81] | 0 to 80 | 0 to 80 | 80 to 100 | 80 to 100 | 80 to 100 | 80 to 100 | 80 to 100 | 80 to 100 | 80 to 100 | 80 to 100 |  |  |  |
| CCCO[C@@H]1[C@@H](CCC(C)C)CCC[C@H](NC(=O)c2nccc(OC)c2OCOC(C)=O)C(=O)O[C@H]1C [Compound F92] | 80 to 100 | 80 to 100 | 80 to 100 | 80 to 100 | 80 to 100 | 80 to 100 | 80 to 100 | 80 to 100 | 80 to 100 | 80 to 100 |  |  |  |
| CCOCC(=O)OCOc1c(OC)ccnc1C(=O)N[C@H]1CCC[C@H](Cc2ccc(F)cc2F)[C@@H](OC(=O)c2ccco2)[C@H](C)OC1=O [Compound F193] | 80 to 100 | 80 to 100 |  |  |  |  |  |  |  |  | 80 to 100 | 80 to 100 | 0 to 80 |
| COc1ccnc(C(=O)N[C@H]2CCC[C@H](Cc3ccc(F)cc3)[C@@H](OCC3CC3)[C@H](C)OC2=O)c1OC(C)=O [Compound F67] | 80 to 100 | 0 to 80 | 80 to 100 | 80 to 100 | 80 to 100 | 80 to 100 | 80 to 100 | 80 to 100 | 80 to 100 | 80 to 100 |  |  |  |
| COc1ccnc(C(=O)N[C@H]2CCC[C@H](Cc3ccc(F)cc3F)[C@@H](OC(=O)c3ccco3)[C@H](C)OC2=O)c1OCOC(=O)C(C)C [Compound F157] | 80 to 100 | 0 to 80 |  | 80 to 100 |  | 0 to 80 |  | 80 to 100 |  |  |  |  |  |
| C=C[C@H]1CCC[C@H](NC(=O)c2nccc(OC)c2OCOC(C)=O)C(=O)O[C@@H](C)[C@@H]1Oc1ccccc1 [Compound F146] | 80 to 100 | 80 to 100 |  | 80 to 100 |  | 80 to 100 |  | 80 to 100 |  | 80 to 100 |  |  |  |
| COc1ccnc(C(=O)N[C@H]2CCC[C@H](Cc3ccccc3)[C@@H](OCC(C)C)[C@H](C)OC2=O)c1OC(C)=O [Compound F70] | 0 to 80 | 0 to 80 | 80 to 100 | 80 to 100 | 80 to 100 | 80 to 100 | 80 to 100 | 80 to 100 | 80 to 100 | 80 to 100 |  |  |  |
| COCC[C@H]1CCC[C@H](NC(=O)c2nccc(OC)c2OC(C)=O)C(=O)O[C@@H](C)[C@@H]1Oc1ccccc1 [Compound F78] | 0 to 80 | 0 to 80 | 80 to 100 | 80 to 100 | 80 to 100 | 80 to 100 | 80 to 100 | 80 to 100 | 80 to 100 | 80 to 100 |  |  |  |
